In this test the test system is HCV (Ib) RNA replication. The experiment in a line: Cell-based luciferase reporter HCV (1b) RNA replication assay (replicon cell lines Huh-7 5.2 and ET). More on the design: species or system Hepatitis C virus. The settings on record: HCV 1b genotype replicon, luciferase readout, 4 days incubation, read-out: EC50_1b. In short, it runs like this: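 Compounds were tested at eleven concentrations in duplicate over 4 days at 37 °C, 5% CO2. The cells were luciferase-reporter HCV 1b replicon lines 5.2 (NS5A adaptive mutation) or ET (NS4B mutation). Luminescence of lysates was measured, and IC50s were derived by nonlinear curve fitting.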
For orientation: Reporter assays use an easily measured gene product as a stand-in for the process of interest.

Read-outs that look alike come from different tables or passages of the source.

For the molecule `COC(=O)N[C@H](C(=O)N1C[C@H](OC)C[C@H]1c1nc2cc(-c3ccc(-c4ccc5[nH]c([C@@H]6C[C@@H](OC)CN6C(=O)[C@@H](NC(=O)OC)C(C)C)nc5c4)cc3)ccc2[nH]1)C(C)C` [Compound 174], for the setting “Hepatitis C virus, Huh-7, 96 h”, the EC50 is no more than 5 nM. For the molecule `COC(=O)N[C@H](C(=O)N1CCC[C@H]1c1nc2cc(-c3cnc(-c4ccc5[nH]c([C@@H]6CCCN6C(=O)[C@@H](NC(=O)OC)C(C)C)nc5c4)s3)ccc2[nH]1)C(C)C` [Compound 176], the EC50 (Hepatitis C virus, Huh-7, 96 h) fell in the range of 5 to 5000 nM. On the same count and under the same terms, under `COC(=O)N[C@H](C(=O)N1CCC[C@H]1c1nc2cc(-c3ccc(-c4ccc5nc([C@@H]6CCCN6C(=O)[C@@H](NC(=O)OC)C(C)C)[nH]c5c4)cc3C(F)(F)F)ccc2[nH]1)C(C)C` [Compound 177] stands no more than 5 nM. Take `CCOC(=O)N[C@H](C(=O)N1CCC[C@H]1c1nc2cc(-c3ccc(-c4ccc5[nH]c([C@@H]6CCCN6C(=O)[C@@H](NC(=O)OCC)C(C)C)nc5c4)cc3)ccc2[nH]1)C(C)C` [Compound 178]: the EC50 (Hepatitis C virus, Huh-7, 96 h) was no more than 5 nM. On the same count and under the same terms, under `COC(=O)NC(C(=O)N1CCCC1c1nc2cc(-c3ccc(-c4ccc5[nH]c([C@@H]6CCCN6C(=O)C(NC(=O)OC)C(C)(C)F)nc5c4)cc3)ccc2[nH]1)C(C)(C)F` (stereo partly shown) [Compound 179] stands no more than 5 nM; under `COC(=O)NC(C(=O)N1CCC[C@H]1c1nc2cc(-c3ccc(-c4ccc5[nH]c([C@@H]6CCCN6C(=O)C(NC(=O)OC)C(C)(C)F)nc5c4)cc3)ccc2[nH]1)C(C)(C)F` (stereo partly shown) [Compound 180], no more than 5 nM. For `COC(=O)N[C@H](C(=O)N1CCC[C@H]1c1nc2cc(-c3ccc(-c4ccc5nc([C@@H]6CCCN6C(=O)[C@@H](NC(=O)OC)C(C)C)[nH]c5c4)cc3C(=O)OC)ccc2[nH]1)C(C)C` [Compound 181], the EC50 (Hepatitis C virus, Huh-7, 96 h) was no more than 5 nM. With `COC(=O)N(C)[C@H](C(=O)N1CCC[C@H]1c1nc2cc(-c3ccc(-c4ccc5nc([C@@H]6CCCN6C(=O)[C@H](C(C)C)N(C)C(=O)OC)[nH]c5c4)c4c3OCO4)ccc2[nH]1)C(C)C` [Compound 182], the EC50 (Hepatitis C virus, Huh-7, 96 h) is no more than 5 nM. On the same count and under the same terms, under `COC(=O)N[C@H](C(=O)N1CCC[C@H]1c1nc2cc(-c3nnc(-c4ccc5[nH]c([C@@H]6CCCN6C(=O)[C@@H](NC(=O)OC)C(C)C)nc5c4)s3)ccc2[nH]1)C(C)C` [Compound 184] stands no more than 5 nM.

In the case of `COC(=O)N[C@H](C(=O)N1CCC[C@H]1c1nc2cc(-c3ccc(-c4ccc5nc([C@@H]6CCCN6C(=O)[C@@H](NC(=O)OC)[C@@H](C)OC)[nH]c5c4)c4c3OCO4)ccc2[nH]1)[C@@H](C)OC` [Compound 185], under “Hepatitis C virus, Huh-7, 96 h”, the EC50 was no more than 5 nM. On the same count and under the same terms, the value for `COC(=O)N[C@H](C(=O)N1C[C@@H](C)C[C@H]1c1nc2cc(-c3ccc(-c4ccc5[nH]c([C@@H]6C[C@H](C)CN6C(=O)[C@@H](NC(=O)OC)C(C)C)nc5c4)cc3)ccc2[nH]1)C(C)C` [Compound 186] was no more than 5 nM; that for `COC(=O)N[C@H](C(=O)N1CCC[C@H]1c1nc2cc(-c3ccc(-c4ccc5[nH]c([C@@H]6CC(F)(F)CN6C(=O)[C@@H](NC(=O)OC)C(C)C)nc5c4)cc3)ccc2[nH]1)C(C)C` [Compound 187] was no more than 5 nM; that for `COC(=O)N[C@H](C(=O)N1CCC[C@H]1c1nc2cc(-c3ccc(-c4ccc5nc([C@@H]6CCCN6C(=O)[C@@H](NC(=O)OC)[C@@H](C)OC)[nH]c5c4)c4ncoc34)ccc2[nH]1)[C@@H](C)OC` [Compound 188] was no more than 5 nM. Same read-out and setting: under `CC(C)[C@H](NC(=O)OC(C)(C)C)C(=O)N1CCC[C@H]1c1nc2ccc(-c3ccc(-c4ccc5nc([C@@H]6CCCN6C(=O)[C@@H](NC(=O)OC(C)(C)C)C(C)C)[nH]c5c4)cc3)cc2[nH]1` [Compound 189] stands 5 to 5000 nM; under `COC(=O)NC(C(=O)N1CCCC1c1nc2cc(-c3ccc(-c4ccc5nc(C6CCCN6C(=O)C(NC(=O)OC)C(C)(C)C)[nH]c5c4)cc3)ccc2[nH]1)C(C)(C)C` (stereo not shown) [Compound 190], no more than 5 nM. For the molecule `COC(=O)NC(C(=O)N1CCCC1c1nc2cc(-c3ccc(-c4ccc5nc(C6CCCN6C(=O)C(NC(=O)OC)C(C)(C)C)[nH]c5c4)cc3)ccc2[nH]1)C(C)(C)C` (stereo not shown) [Compound 191], the EC50 was no more than 5 nM. As to `c1cc(-c2ccc3[nH]c([C@@H]4CCCN4CCC4CCOCC4)nc3c2)ccc1-c1ccc2[nH]c(C3CCCN3CCC3CCOCC3)nc2c1` (stereo partly shown) [Compound 192], the EC50 (Hepatitis C virus, Huh-7, 96 h) lay in the range of 5 to 5000 nM. On to `COC(=O)NC(C(=O)N1CCCC1c1nc2cc(-c3ccc(-c4ccc5nc(C6CCCN6C(=O)C(NC(=O)OC)C(C)(C)C)[nH]c5c4)cc3)ccc2[nH]1)C(C)(C)C` (stereo not shown) [Compound 193], for which the EC50 lay in the range of 5 to 5000 nM. Consider `[2H]C1([2H])Oc2c(-c3ccc4[nH]c([C@@H]5CCCN5C(=O)[C@@H](NC(=O)OC)C(C)C)nc4c3)ccc(-c3ccc4[nH]c([C@@H]5CCCN5C(=O)[C@@H](NC(=O)OC)C(C)C)nc4c3)c2O1` [Compound 194], for which, where the note is “Hepatitis C virus, Huh-7, 96 h”, the EC50 is no more than 5 nM.

`COC(=O)N[C@H](CN1CCC[C@H]1c1nc2cc(-c3ccc(-c4ccc5[nH]c([C@@H]6CCCN6C[C@@H](NC(=O)OC)C(C)C)nc5c4)cc3)ccc2[nH]1)C(C)C` [Compound 195]: the EC50 (Hepatitis C virus, Huh-7, 96 h) was 5 to 5000 nM. The same measure, in the same setting: the value for `COCC(=O)N[C@H](C(=O)N1CCC[C@H]1c1nc2ccc(-c3ccc(-c4ccc5nc([C@@H]6CCCN6C(=O)[C@@H](NC(=O)COC)C(C)C)[nH]c5c4)cc3)cc2[nH]1)C(C)C` [Compound 196] was 5 to 5000 nM; that for `CC(C)[C@H](N)C(=O)N1CCC[C@H]1c1nc2ccc(-c3ccc(-c4ccc5nc([C@@H]6CCCN6C(=O)[C@@H](N)C(C)C)[nH]c5c4)cc3)cc2[nH]1` [Compound 197] was 5 to 5000 nM. Still for that read-out and setting: under `COC(=O)N[C@H](C(=O)N1CCC[C@H]1c1nc2cc(-c3ccc(-c4ccc5nc([C@@H]6CCCN6C(=O)[C@@H](NC(=O)OC)C(C)C)[nH]c5c4)cc3C(=O)O)ccc2[nH]1)C(C)C` [Compound 198] stands no more than 5 nM; under `COC(=O)N[C@H](C(=O)N1CCC[C@H]1c1nc2cc(-c3cc4sc(-c5ccc6nc([C@@H]7CCCN7C(=O)[C@@H](NC(=O)OC)[C@@H](C)OC)[nH]c6c5)cc4s3)ccc2[nH]1)[C@@H](C)OC` [Compound 199], no more than 5 nM. Same read-out and setting: under `COC(=O)N[C@H](C(=O)N1CCC[C@H]1c1nc2ccc(-c3cnc(-c4ccc5nc([C@@H]6CCCN6C(=O)[C@@H](NC(=O)OC)C(C)C)[nH]c5c4)n3C)cc2[nH]1)C(C)C` [Compound 200] stands 5 to 5000 nM. Consider `COC(=O)NC(C(=O)N1CCC[C@H]1c1nc2ccc(-c3cnc(-c4cnc(-c5ccc6nc([C@@H]7CCCN7C(=O)[C@@H](NC(=O)OC)C(C)C)[nH]c6c5)n4C)n3C)cc2[nH]1)C(C)C` (stereo partly shown) [Compound 201], for which the EC50 (Hepatitis C virus, Huh-7, 96 h) is no more than 5 nM. Same read-out and setting: under `COC(=O)N[C@H](C(=O)N1CCC[C@H]1c1nc2cc(-c3c[nH]c(-c4ccc5nc([C@@H]6CCCN6C(=O)[C@@H](NC(=O)OC)C(C)C)[nH]c5c4)n3)ccc2[nH]1)C(C)C` [Compound 202] stands 5 to 5000 nM; under `COC(=O)N[C@@H](Cc1cncn1C)C(=O)N1CCC[C@H]1c1nc2cc(-c3ccc(-c4ccc5[nH]c([C@@H]6CCCN6C(=O)[C@@H](NC(=O)OC)C(C)C)nc5c4)cc3)ccc2[nH]1` [Compound 203], no more than 5 nM.

Consider `COC(=O)N[C@H](C(=O)N1CCC[C@H]1c1nc2cc(C#Cc3ccc4[nH]c([C@@H]5CCCN5C(=O)[C@@H](NC(=O)OC)[C@@H](C)OC)nc4c3)ccc2[nH]1)[C@@H](C)OC` [Compound 206], for which the EC50 (Hepatitis C virus, Huh-7, 96 h) was no more than 5 nM. The same measure, in the same setting: under `COC(=O)N[C@H](C(=O)N1CCC[C@H]1c1nc2cc(-c3ccc(-c4ccc5[nH]c([C@@H]6CCCN6C(=O)[C@@H](NC(=O)OC)[C@@H](C)OC)nc5c4)c(C)c3)ccc2[nH]1)[C@@H](C)OC` [Compound 207] stands no more than 5 nM; under `COC(=O)N[C@H](C(=O)N1CCC[C@H]1c1nc2cc(-c3ccc(-c4ccc5[nH]c([C@@H]6CCCN6C(=O)[C@@H](NC(=O)OC)[C@@H](C)OC)nc5c4)cc3)ccc2[nH]1)C(C)C` [Compound 208], no more than 5 nM; under `CC(C)[C@H](O)C(=O)N1CCC[C@H]1c1nc2cc(-c3ccc(-c4ccc5nc([C@@H]6CCCN6C(=O)[C@@H](O)C(C)C)[nH]c5c4)c4c3OCO4)ccc2[nH]1` [Compound 209], 5 to 5000 nM. The same measure, in the same setting: under `O=C(OCc1ccccc1)N1CCC[C@H]1c1nc2ccc(N3CCN(c4ccc5nc([C@@H]6CCCN6C(=O)OCc6ccccc6)[nH]c5c4)CC3)cc2[nH]1` [Compound 210] stands 5 to 5000 nM; under `COC(=O)NC(C(=O)N1CCC[C@H]1c1nc2ccc(-c3ccc(-c4ccc5nc([C@@H]6CCCN6C(=O)[C@@H](NC(=O)OC)C(C)C)[nH]c5c4)cc3)cc2[nH]1)C(C)(C)C` (stereo partly shown) [Compound 211], no more than 5 nM.

As to `COC(=O)NC(C(=O)N1CCC[C@H]1c1nc2ccc(-c3ccc(-c4ccc5nc([C@@H]6CCCN6C(=O)[C@@H](NC(=O)OC)C(C)C)[nH]c5c4)cc3)cc2[nH]1)C(C)(C)C` (stereo partly shown) [Compound 212], the EC50 was no more than 5 nM. `CCc1cc(-c2ccc3[nH]c([C@@H]4CCCN4C(=O)[C@@H](NC(=O)OC)C(C)C)nc3c2)ccc1-c1ccc2[nH]c([C@@H]3CCCN3C(=O)[C@@H](NC(=O)OC)C(C)C)nc2c1` [Compound 213]: for the setting “Hepatitis C virus, Huh-7, 96 h”, the EC50 is no more than 5 nM.

Take `COC(=O)N[C@H](C(=O)N1CCC[C@H]1c1nc2cc(-c3nc(C)c(-c4ccc5[nH]c([C@@H]6CCCN6C(=O)[C@@H](NC(=O)OC)C(C)C)nc5c4)s3)ccc2[nH]1)C(C)C` [Compound 214]: the EC50 (Hepatitis C virus, Huh-7, 96 h) is no more than 5 nM.

On to `CC[C@@H](C(=O)N1CCC[C@H]1c1nc2cc(-c3ccc(-c4ccc5nc([C@@H]6CCCN6C(=O)[C@H](CC)N(C)C(=O)OC)[nH]c5c4)c4c3OCO4)ccc2[nH]1)N(C)C(=O)OC` [Compound 215], for which the EC50 (Hepatitis C virus, Huh-7, 96 h) was no more than 5 nM. Same read-out and setting: the value for `COC(=O)N[C@H](C(=O)N1CCC[C@H]1c1nc2cc(-c3ccc(-c4ccc5nc([C@@H]6CCCN6C(=O)CCCC[C@@H]6SC[C@@H]7NC(=O)N[C@@H]76)[nH]c5c4)cc3)ccc2[nH]1)C(C)C` [Compound 216] was no more than 5 nM; that for `COC(=O)N[C@H](C(=O)N1CCCC1c1nc2cc(-c3ccc(-c4ccc(-c5ccc6[nH]c(C7CCCN7C(=O)[C@@H](NC(=O)OC)C(C)C)nc6c5)s4)s3)ccc2[nH]1)C(C)C` (stereo partly shown) [Compound 217] was no more than 5 nM.
